{
  "source": "patent US6426369B1",
  "about": "“Oxethazaine as antimicrobial agent” (Eisai Co., Ltd., priority 1997, dated 2002)",
  "key": {"[1]": {"assay": "Acute toxicity test, single oral dose, rats", "assay_type": "in vivo, Slc:SD rats", "conditions": "for LD50: Slc:SD, rat, in vivo, po, single oral dose, read-out: LD50 (Oral administration)", "method": "(§1) A toxicity test was conducted by orally administering a single dose into 7- to 8-weeks old Slc:SD rats and Slc:ICR mice, each group consisting of 5 females and 5 males (medium; physiological saline)."}, "H. pylori [2]": {"test_system": "H. pylori", "assay": "Antimicrobial activity test 1: anti-H. pylori activity of a single compound (agar plate method)", "assay_type": "cell-based, Helicobacter pylori", "conditions": "for MIC: Helicobacter pylori"}, "[3]": {"assay": "Acute toxicity test, single oral dose, mice", "conditions": "Slc:ICR, mouse, in vivo, read-out: LD50 (Oral administration)", "method": "as §1"}, "H. pylori [4]": {"test_system": "H. pylori", "assay": "Antimicrobial activity test 6: oxethazaine in combination with an antibiotic (AMPC, CAM, RXM), checker board method", "assay_type": "cell-based, Helicobacter pylori", "parameters": "key to growth of H. pylori: “−” indicates the inhibited growth of H. pylori (presence of antimicrobial activity); “+” indicates the growth of H. pylori (absence of antimicrobial activity)", "excerpt": "The effect of combined use with amoxicillin (AMPC), clarithromycin (CAM) or roxithromycin (RXM) was examined in the same manner as in antimicrobial activity test 1, using the checker board method."}},
  "note": "Where two headings read alike, the source gives them in different places.",
  "data": [
    {"smiles": "CN(C(=O)CN(CCO)CC(=O)N(C)C(C)(C)Cc1ccccc1)C(C)(C)Cc1ccccc1", "note": "[Oxethazaine, 2,2′-[(2-hydroxyethyl)amino]bis[N-(1,1-dimethyl-2-phenylethyl)-N-methylacetamide]]", "values": [
      {"measurement": "LD50", "setting": "[1]; female, Rat ♀", "value": 1070, "unit": "mg/kg"},
      {"measurement": "LD50", "setting": "[1]; male, Rat ♂", "value": "≥ 1000", "unit": "mg/kg"},
      {"measurement": "LD50 values relative to clinical doses", "setting": "[1]; oral, rats and mice, clinical doses 15 to 40 mg/day", "value": "about 5000 times"},
      {"measurement": "MIC", "setting": "H. pylori [2]; NCTC11637, strain NCTC11637, read-out: MIC (growth inhibition)", "value": 25, "unit": "µg/mL"},
      {"measurement": "MIC", "setting": "H. pylori [2]; NCTC11639, strain NCTC11639, read-out: MIC (growth inhibition)", "value": 50, "unit": "µg/mL"},
      {"measurement": "MIC", "setting": "H. pylori [2]; NCTC11916, strain NCTC11916, read-out: MIC (growth inhibition)", "value": 25, "unit": "µg/mL"},
      {"measurement": "MIC", "setting": "H. pylori [2]; strain 89-355, read-out: MIC (growth inhibition)", "value": 12.5, "unit": "µg/mL"},
      {"measurement": "MIC", "setting": "H. pylori [2]; strain 89-357, read-out: MIC (growth inhibition)", "value": 25, "unit": "µg/mL"},
      {"measurement": "MIC", "setting": "H. pylori [2]; strain 89-360 (1), read-out: MIC (growth inhibition)", "value": 25, "unit": "µg/mL"},
      {"measurement": "MIC", "setting": "H. pylori [2]; strain 89-360, read-out: MIC (growth inhibition)", "value": 25, "unit": "µg/mL"},
      {"measurement": "MIC", "setting": "H. pylori [2]; strain 90-384, read-out: MIC (growth inhibition)", "value": 25, "unit": "µg/mL"},
      {"measurement": "MIC", "setting": "H. pylori [2]; strain 90-388 (1), read-out: MIC (growth inhibition)", "value": 25, "unit": "µg/mL"},
      {"measurement": "MIC", "setting": "H. pylori [2]; strain 90-388, read-out: MIC (growth inhibition)", "value": 25, "unit": "µg/mL"},
      {"measurement": "MIC", "setting": "H. pylori [2]; strain 90-390 (1), read-out: MIC (growth inhibition)", "value": 25, "unit": "µg/mL"},
      {"measurement": "MIC", "setting": "H. pylori [2]; strain 90-390, read-out: MIC (growth inhibition)", "value": 25, "unit": "µg/mL"},
      {"measurement": "MIC", "setting": "H. pylori [2]; strain 90-392, read-out: MIC (growth inhibition)", "value": 25, "unit": "µg/mL"},
      {"measurement": "MIC", "setting": "H. pylori [2]; strain 90-397 (first line, r19), read-out: MIC (growth inhibition)", "value": 25, "unit": "µg/mL"},
      {"measurement": "MIC", "setting": "H. pylori [2]; strain 90-397 (second line, r25), read-out: MIC (growth inhibition)", "value": 25, "unit": "µg/mL"},
      {"measurement": "MIC", "setting": "H. pylori [2]; strain 90-407 (1), read-out: MIC (growth inhibition)", "value": 25, "unit": "µg/mL"},
      {"measurement": "MIC", "setting": "H. pylori [2]; strain 90-407, read-out: MIC (growth inhibition)", "value": 25, "unit": "µg/mL"},
      {"measurement": "MIC", "setting": "H. pylori [2]; strain 90-411, read-out: MIC (growth inhibition)", "value": 25, "unit": "µg/mL"},
      {"measurement": "MIC", "setting": "H. pylori [2]; strain 90-414 (1), read-out: MIC (growth inhibition)", "value": 25, "unit": "µg/mL"},
      {"measurement": "MIC", "setting": "H. pylori [2]; strain 90-414, read-out: MIC (growth inhibition)", "value": 25, "unit": "µg/mL"},
      {"measurement": "MIC", "setting": "H. pylori [2]; strain 90-428, read-out: MIC (growth inhibition)", "value": 25, "unit": "µg/mL"},
      {"measurement": "MIC", "setting": "H. pylori [2]; strain EH12, read-out: MIC (growth inhibition)", "value": 25, "unit": "µg/mL"},
      {"measurement": "MIC", "setting": "H. pylori [2]; strain EH13, read-out: MIC (growth inhibition)", "value": 25, "unit": "µg/mL"},
      {"measurement": "MIC", "setting": "H. pylori [2]; strain EH16, read-out: MIC (growth inhibition)", "value": 25, "unit": "µg/mL"},
      {"measurement": "MIC", "setting": "H. pylori [2]; strain EH26, read-out: MIC (growth inhibition)", "value": 25, "unit": "µg/mL"},
      {"measurement": "MIC", "setting": "H. pylori [2]; summary of the strains of antimicrobial activity test 1, read-out: MIC for each strain", "value": "~25", "unit": "µg/mL"},
      {"measurement": "anti-H. pylori activity", "setting": "H. pylori [2]; conclusion from test 1", "value": "excellent anti-H. pylori activity"},
      {"measurement": "LD50", "setting": "[3]; female, Mouse ♀", "value": "≥ 1000", "unit": "mg/kg"},
      {"measurement": "LD50", "setting": "[3]; male, Mouse ♂", "value": 1230, "unit": "mg/kg"},
      {"measurement": "growth of H. pylori", "setting": "H. pylori [4]; 89-355, oxethazaine 3.13 + CAM 0 μg/ml", "value": "+"},
      {"measurement": "growth of H. pylori", "setting": "H. pylori [4]; 89-355, oxethazaine 6.25 + CAM 0 μg/ml", "value": "+"},
      {"measurement": "growth of H. pylori", "setting": "H. pylori [4]; 89-355, oxethazaine 12.5 + CAM 0 μg/ml", "value": "−"},
      {"measurement": "growth of H. pylori", "setting": "H. pylori [4]; 89-355, oxethazaine 25 + CAM 0 μg/ml", "value": "−"},
      {"measurement": "growth of H. pylori", "setting": "H. pylori [4]; 89-355, oxethazaine 50 + CAM 0 μg/ml", "value": "−"},
      {"measurement": "growth of H. pylori", "setting": "H. pylori [4]; 89-355, oxethazaine 100 + CAM 0 μg/ml", "value": "−"},
      {"measurement": "growth of H. pylori", "setting": "H. pylori [4]; 89-357, oxethazaine 3.13 + CAM 0 μg/ml", "value": "+"},
      {"measurement": "growth of H. pylori", "setting": "H. pylori [4]; 89-357, oxethazaine 6.25 + CAM 0 μg/ml", "value": "+"},
      {"measurement": "growth of H. pylori", "setting": "H. pylori [4]; 89-357, oxethazaine 12.5 + CAM 0 μg/ml", "value": "+"},
      {"measurement": "growth of H. pylori", "setting": "H. pylori [4]; 89-357, oxethazaine 25 + CAM 0 μg/ml", "value": "−"},
      {"measurement": "growth of H. pylori", "setting": "H. pylori [4]; 89-357, oxethazaine 50 + CAM 0 μg/ml", "value": "−"},
      {"measurement": "growth of H. pylori", "setting": "H. pylori [4]; 89-357, oxethazaine 100 + CAM 0 μg/ml", "value": "−"},
      {"measurement": "growth of H. pylori", "setting": "H. pylori [4]; 90-388, oxethazaine 3.13 + CAM 0 μg/ml", "value": "+"},
      {"measurement": "growth of H. pylori", "setting": "H. pylori [4]; 90-388, oxethazaine 6.25 + CAM 0 μg/ml", "value": "+"},
      {"measurement": "growth of H. pylori", "setting": "H. pylori [4]; 90-388, oxethazaine 12.5 + CAM 0 μg/ml", "value": "+"},
      {"measurement": "growth of H. pylori", "setting": "H. pylori [4]; 90-388, oxethazaine 25 + CAM 0 μg/ml", "value": "−"},
      {"measurement": "growth of H. pylori", "setting": "H. pylori [4]; 90-388, oxethazaine 50 + CAM 0 μg/ml", "value": "−"},
      {"measurement": "growth of H. pylori", "setting": "H. pylori [4]; 90-388, oxethazaine 100 + CAM 0 μg/ml", "value": "−"},
      {"measurement": "growth of H. pylori", "setting": "H. pylori [4]; 90-390, oxethazaine 3.13 + CAM 0 μg/ml", "value": "+"},
      {"measurement": "growth of H. pylori", "setting": "H. pylori [4]; 90-390, oxethazaine 6.25 + CAM 0 μg/ml", "value": "+"},
      {"measurement": "growth of H. pylori", "setting": "H. pylori [4]; 90-390, oxethazaine 12.5 + CAM 0 μg/ml", "value": "+"},
      {"measurement": "growth of H. pylori", "setting": "H. pylori [4]; 90-390, oxethazaine 25 + CAM 0 μg/ml", "value": "−"},
      {"measurement": "growth of H. pylori", "setting": "H. pylori [4]; 90-390, oxethazaine 50 + CAM 0 μg/ml", "value": "−"},
      {"measurement": "growth of H. pylori", "setting": "H. pylori [4]; 90-390, oxethazaine 100 + CAM 0 μg/ml", "value": "−"},
      {"measurement": "growth of H. pylori", "setting": "H. pylori [4]; EH 12, oxethazaine 3.13 + CAM 0 μg/ml", "value": "+"},
      {"measurement": "growth of H. pylori", "setting": "H. pylori [4]; EH 12, oxethazaine 6.25 + CAM 0 μg/ml", "value": "+"},
      {"measurement": "growth of H. pylori", "setting": "H. pylori [4]; EH 12, oxethazaine 12.5 + CAM 0 μg/ml", "value": "−"},
      {"measurement": "growth of H. pylori", "setting": "H. pylori [4]; EH 12, oxethazaine 25 + CAM 0 μg/ml", "value": "−"},
      {"measurement": "growth of H. pylori", "setting": "H. pylori [4]; EH 12, oxethazaine 50 + CAM 0 μg/ml", "value": "−"},
      {"measurement": "growth of H. pylori", "setting": "H. pylori [4]; EH 12, oxethazaine 100 + CAM 0 μg/ml", "value": "−"},
      {"measurement": "growth of H. pylori", "setting": "H. pylori [4]; EH 13, oxethazaine 3.13 + CAM 0 μg/ml", "value": "+"},
      {"measurement": "growth of H. pylori", "setting": "H. pylori [4]; EH 13, oxethazaine 6.25 + CAM 0 μg/ml", "value": "+"},
      {"measurement": "growth of H. pylori", "setting": "H. pylori [4]; EH 13, oxethazaine 12.5 + CAM 0 μg/ml", "value": "+"},
      {"measurement": "growth of H. pylori", "setting": "H. pylori [4]; EH 13, oxethazaine 25 + CAM 0 μg/ml", "value": "−"},
      {"measurement": "growth of H. pylori", "setting": "H. pylori [4]; EH 13, oxethazaine 50 + CAM 0 μg/ml", "value": "−"},
      {"measurement": "growth of H. pylori", "setting": "H. pylori [4]; EH 13, oxethazaine 100 + CAM 0 μg/ml", "value": "−"},
      {"measurement": "growth of H. pylori", "setting": "H. pylori [4]; strain 90-388, oxethazaine 3.13 μg/ml, AMPC 0", "value": "+"},
      {"measurement": "growth of H. pylori", "setting": "H. pylori [4]; strain 90-388, oxethazaine 6.25 μg/ml, AMPC 0", "value": "+"},
      {"measurement": "growth of H. pylori", "setting": "H. pylori [4]; strain 90-388, oxethazaine 12.5 μg/ml, AMPC 0", "value": "+"},
      {"measurement": "growth of H. pylori", "setting": "H. pylori [4]; strain 90-388, oxethazaine 25 μg/ml, AMPC 0", "value": "−"},
      {"measurement": "growth of H. pylori", "setting": "H. pylori [4]; strain 90-388, oxethazaine 50 μg/ml, AMPC 0", "value": "−"},
      {"measurement": "growth of H. pylori", "setting": "H. pylori [4]; strain 90-388, oxethazaine 100 μg/ml, AMPC 0", "value": "−"},
      {"measurement": "growth of H. pylori", "setting": "H. pylori [4]; strain 90-390, oxethazaine 3.13 μg/ml, AMPC 0", "value": "+"}
    ]}
  ]
}
